Data taken from article PMC8843100, “Development of newly synthesised quinazolinone-based CDK2 inhibitors with potent efficacy against melanoma” (Journal of Enzyme Inhibition and Medicinal Chemistry, 2022).

Key:
Experiment in all cases: NCI-60 single dose screen, sulforhodamine B
Assay type in all cases: cell-based, human
[1] = tested on: MALME-3M; settings: Melanoma MALME-3M; single dose 10^−5 M
Summary of the method: (§1)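 Each compound, in DMSO, was applied once at 10 µM to cells pre-grown for a day; after a further 2-day incubation the cells were fixed and stained with sulforhodamine B.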

[2] = tested on: KM12; settings: Colon cancer KM12; single dose 10^−5 M
Summary of the method: as §1

[3] = tested on: COLO 205; settings: Colon cancer COLO 205; single dose 10^−5 M
Summary of the method: as §1

[4] = tested on: U251; settings: CNS cancer U251; single dose 10^−5 M
Summary of the method: as §1

[5] = tested on: NCI/ADR-RES; settings: Ovarian cancer NCI/ADR-RES; single dose 10^−5 M
Summary of the method: as §1

[6] = tested on: MDA-MB-435; settings: Melanoma MDA-MB-435; single dose 10^−5 M
Summary of the method: as §1

[7] = tested on: HCC-2998; settings: Colon cancer HCC-2998; single dose 10^−5 M
Summary of the method: as §1

[8] = tested on: SNB-75; settings: CNS cancer SNB-75; single dose 10^−5 M
Summary of the method: as §1

[9] = tested on: RXF 393; settings: Renal cancer RXF 393; single dose 10^−5 M
Summary of the method: as §1

[10] = tested on: UACC-62; settings: Melanoma UACC-62; single dose 10^−5 M
Summary of the method: as §1

[11] = tested on: MDA-MB-231/ATCC; settings: Breast cancer MDA-MB-231/ATCC; single dose 10^−5 M
Summary of the method: as §1

[12] = tested on: NCI-H226; settings: Non-small cell lung cancer NCI-H226; single dose 10^−5 M
Summary of the method: as §1

[13] = tested on: HOP-92; settings: Non-small cell lung cancer HOP-92; single dose 10^−5 M
Summary of the method: as §1

[14] = tested on: CAKI-1; settings: Renal cancer CAKI-1; single dose 10^−5 M
Summary of the method: as §1

[15] = tested on: HS 578T; settings: Breast cancer HS 578T; single dose 10^−5 M
Summary of the method: as §1

[16] = tested on: K-562; settings: Leukaemia K-562; single dose 10^−5 M
Summary of the method: as §1

[17] = tested on: NCI-H522; settings: Non-small cell lung cancer NCI-H522; single dose 10^−5 M
Summary of the method: as §1

[18] = tested on: SW-620; settings: Colon cancer SW-620; single dose 10^−5 M
Summary of the method: as §1

[19] = tested on: SF-295; settings: CNS cancer SF-295; single dose 10^−5 M
Summary of the method: as §1

[20] = tested on: LOX IMVI; settings: Melanoma LOX IMVI; single dose 10^−5 M
Summary of the method: as §1

[21] = tested on: BT-549; settings: Breast cancer BT-549; single dose 10^−5 M
Summary of the method: as §1

[22] = tested on: SR; settings: Leukaemia SR; single dose 10^−5 M
Summary of the method: as §1

[23] = tested on: NCI-H460; settings: Non-small cell lung cancer NCI-H460; single dose 10^−5 M
Summary of the method: as §1

[24] = tested on: A498; settings: Renal cancer A498; single dose 10^−5 M
Summary of the method: as §1

[25] = tested on: SN12C; settings: Renal cancer SN12C; single dose 10^−5 M
Summary of the method: as §1

[26] = tested on: PC-3; settings: Prostate cancer PC-3; single dose 10^−5 M
Summary of the method: as §1

[27] = tested on: EKVX; settings: Non-small cell lung cancer EKVX; single dose 10^−5 M
Summary of the method: as §1

[28] = tested on: UACC-257; settings: Melanoma UACC-257; single dose 10^−5 M
Summary of the method: as §1

[29] = tested on: HT29; settings: Colon cancer HT29; single dose 10^−5 M
Summary of the method: as §1

[30] = tested on: SNB-19; settings: CNS cancer SNB-19; single dose 10^−5 M
Summary of the method: as §1

[31] = tested on: A549/ATCC; settings: Non-small cell lung cancer A549/ATCC; single dose 10^−5 M
Summary of the method: as §1

[32] = tested on: OVCAR-3; settings: Ovarian cancer OVCAR-3; single dose 10^−5 M
Summary of the method: as §1

Row | SMILES | GI% at 10^−5 M [1] | GI% at 10^−5 M [2] | GI% at 10^−5 M [3] | GI% at 10^−5 M [4] | GI% at 10^−5 M [5] | GI% at 10^−5 M [6] | GI% at 10^−5 M [7] | GI% at 10^−5 M [8] | GI% at 10^−5 M [9] | GI% at 10^−5 M [10] | GI% at 10^−5 M [11] | GI% at 10^−5 M [12] | GI% at 10^−5 M [13] | GI% at 10^−5 M [14] | GI% at 10^−5 M [15] | GI% at 10^−5 M [16] | GI% at 10^−5 M [17] | GI% at 10^−5 M [18] | GI% at 10^−5 M [19] | GI% at 10^−5 M [20] | also measured
1 | CN1CCN(CC(=O)Nn2c(COc3ccccc3)nc3ccccc3c2=O)CC1 [Compound 8a, 2–(4-methylpiperazin-1-yl)-N-(4-oxo-2-(phenoxymethyl)quinazolin-3(4H)-yl)acetamide] | 20.47% | 55.03% | 15.89% | 18.55% | 28.41% | 94.15% | 10.06% | 27.37% | – (– means GI < 10%) | 30.69% | 21.65% | 15.39% | – (– means GI < 10%) | 28.85% | 13.94% | 67.8% | 24.6% | 42.80% | – (– means GI < 10%) | 14.73% | GI% at 10^−5 M [21]: – (– means GI < 10%); GI% at 10^−5 M [22]: 69.55%; GI% at 10^−5 M [23]: – (– means GI < 10%); GI% at 10^−5 M [24]: 18.24%; GI% at 10^−5 M [25]: – (– means GI < 10%); GI% at 10^−5 M [26]: – (– means GI < 10%); GI% at 10^−5 M [27]: 13.93%; GI% at 10^−5 M [28]: – (– means GI < 10%); GI% at 10^−5 M [29]: 26.89%; GI% at 10^−5 M [30]: 13.65%; GI% at 10^−5 M [31]: – (– means GI < 10%); GI% at 10^−5 M [32]: – (– means GI < 10%)
2 | O=C(CN1CCN(c2ccccc2)CC1)Nn1c(COc2ccccc2)nc2ccccc2c1=O [Compound 8b, N-(4-oxo-2-(phenoxymethyl)quinazolin-3(4H)-yl)-2–(4-phenylpiperazin-1-yl)acetamid] | – (– means GI < 10%) | – (– means GI < 10%) | – (– means GI < 10%) | – (– means GI < 10%) | – (– means GI < 10%) | – (– means GI < 10%) | – (– means GI < 10%) | – (– means GI < 10%) | – (– means GI < 10%) | – (– means GI < 10%) | 10.38% | – (– means GI < 10%) | – (– means GI < 10%) | – (– means GI < 10%) | 10.4% | – (– means GI < 10%) | 11.45% | – (– means GI < 10%) | – (– means GI < 10%) | – (– means GI < 10%) | GI% at 10^−5 M [21]: – (– means GI < 10%); GI% at 10^−5 M [22]: – (– means GI < 10%); GI% at 10^−5 M [23]: – (– means GI < 10%); GI% at 10^−5 M [24]: – (– means GI < 10%); GI% at 10^−5 M [25]: – (– means GI < 10%); GI% at 10^−5 M [26]: – (– means GI < 10%); GI% at 10^−5 M [27]: – (– means GI < 10%); GI% at 10^−5 M [28]: – (– means GI < 10%); GI% at 10^−5 M [29]: – (– means GI < 10%); GI% at 10^−5 M [30]: – (– means GI < 10%); GI% at 10^−5 M [31]: – (– means GI < 10%); GI% at 10^−5 M [32]: – (– means GI < 10%)
3 | COc1ccc(N2CCN(CC(=O)Nn3c(COc4ccccc4)nc4ccccc4c3=O)CC2)cc1 [Compound 8c, 2–(4-(4-methoxyphenyl)piperazin-1-yl)-N-(4-oxo-2-(phenoxymethyl)quinazolin-3(4H)-yl)acetamide] | – (– means GI < 10%) | – (– means GI < 10%) | – (– means GI < 10%) | – (– means GI < 10%) | – (– means GI < 10%) | – (– means GI < 10%) | – (– means GI < 10%) | 26.47% | – (– means GI < 10%) | – (– means GI < 10%) | – (– means GI < 10%) | – (– means GI < 10%) | – (– means GI < 10%) | – (– means GI < 10%) | – (– means GI < 10%) | – (– means GI < 10%) | 10.67% | – (– means GI < 10%) | – (– means GI < 10%) | – (– means GI < 10%) | GI% at 10^−5 M [21]: – (– means GI < 10%); GI% at 10^−5 M [22]: 12.84%; GI% at 10^−5 M [23]: – (– means GI < 10%); GI% at 10^−5 M [24]: 15.04%; GI% at 10^−5 M [25]: – (– means GI < 10%); GI% at 10^−5 M [26]: 14.02%; GI% at 10^−5 M [27]: – (– means GI < 10%); GI% at 10^−5 M [28]: – (– means GI < 10%); GI% at 10^−5 M [29]: – (– means GI < 10%); GI% at 10^−5 M [30]: – (– means GI < 10%); GI% at 10^−5 M [31]: – (– means GI < 10%); GI% at 10^−5 M [32]: – (– means GI < 10%)
